Experiments:
[1] = system: SMN2 minigene (full length SMN2 minigene mRNA containing SMN2 exon 7); assay: SMN2 minigene mRNA splicing RT-qPCR assay in cultured cells; format: cell-based, human; conditions: Homo sapiens, HEK293-H; HEK293H cells stably transfected with SMN2-A minigene; 24 hours; 7-point concentration curve; 1.5-fold relative to vehicle-treated cells; read-out: EC1.5x for production of full length SMN2 mRNA
Method in brief: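 HEK293H cells stably carrying the SMN2-A minigene treated 24 h at 37° C with compound (DMSO, 200× stock), then lysed. Multiplex RT-qPCR (SMN primers 0.4 μM final; 40 cycles) measures full-length exon 7-containing minigene mRNA, normalized to GAPDH and to vehicle; EC1.5x derived and binned by stars.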

Smn protein = Smn protein assay in cultured cells (SMN HTRF); format: cell-based, human; conditions: 48 hours; for maximum fold (Fold) increase of Smn protein: SMA patient fibroblast cells, 7-point concentration data, fold increase relative to vehicle control (SMN HTRF); for EC1.5x (concentration giving 1.5-fold Smn protein increase): SMA Type 1 patient fibroblast cells (GM03813), 7-point concentration curve, SMN HTRF, concentration producing 1.5 times Smn protein vs DMSO vehicle control, read-out: EC1.5x for Smn protein expression
Method in brief: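 Lysates in RIPA with protease inhibitors are incubated overnight at room temperature with HTRF anti-SMN antibodies. EC1.5x is derived from fold increase in ΔF over vehicle.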

SMILES	EC (1.5-fold) [1] [µM]	maximum fold (Fold) increase of Smn protein (Smn protein)	melting point	EC1.5x (concentration giving 1.5-fold Smn protein increase) (Smn protein) [nM]
O=c1oc2cc(N3CCCNCC3)ccc2cc1-c1nc(C(F)(F)F)cs1 [Compound 237, 7-(1,4-diazepan-1-yl)-3-[4-(trifluoromethyl)-1,3-thiazol-2-yl]-2H-chromen-2-one]	1 to 3	* (maximum fold increase of ≤1.2)	200 °C	–
CN1CCCN(c2ccc3cc(-c4nc(C(F)(F)F)cs4)c(=O)oc3c2)CC1 [Compound 238, 7-(4-methyl-1,4-diazepan-1-yl)-3-[4-(trifluoromethyl)-1,3-thiazol-2-yl]-2H-chromen-2-one]	1 to 3	* (maximum fold increase of ≤1.2)	218 to 225 °C	–
C[C@H]1CN(c2ccc3cc(-c4nc(C(F)(F)F)cs4)c(=O)oc3c2)CCN1 [Compound 239, 7-[(3S)-3-methylpiperazin-1-yl]-3-[4-(trifluoromethyl)-1,3-thiazol-2-yl]-2H-chromen-2-one]	1 to 3	* (maximum fold increase of ≤1.2)	234 to 238 °C	–
C[C@@H]1CN(c2ccc3cc(-c4nc(C(F)(F)F)cs4)c(=O)oc3c2)CCN1 [Compound 240, 7-[(3R)-3-methylpiperazin-1-yl]-3-[4-(trifluoromethyl)-1,3-thiazol-2-yl]-2H-chromen-2-one]	1 to 3	* (maximum fold increase of ≤1.2)	234 to 238 °C	–
Cc1cnc2nc(-c3cc4ccc(N5CCN(C)CC5)cc4oc3=O)cn2c1 [Compound 242, 3-(6-methylimidazo[1,2-a]pyrimidin-2-yl)-7-(4-methylpiperazin-1-yl)-2H-chromen-2-one]	0.3 to 1	*** (fold increase between >1.35 and ≤1.5)	> 310 °C	–
Cc1cnc2nc(-c3cc4ccc(N5C[C@@H](C)N[C@@H](C)C5)cc4oc3=O)cn2c1 [Compound 243, 7-[(3R,5S)-3,5-dimethylpiperazin-1-yl]-3-(6-methylimidazo[1,2-a]pyrimidin-2-yl)-2H-chromen-2-one]	0.3 to 1	** (fold increase between >1.2 and ≤1.35)	308 to 310 °C	3000 to 10000
CN1CCN(c2ccc3cc(-c4cn5cccc(C6CC6)c5n4)c(=O)oc3c2)CC1 [Compound 244, 3-(8-cyclopropylimidazo[1,2-a]pyridin-2-yl)-7-(4-methylpiperazin-1-yl)-2H-chromen-2-one]	0.3 to 1	* (maximum fold increase of ≤1.2)	198 to 202 °C	–
CN1CCN(c2ccc3cc(-c4cn5cccc(Br)c5n4)c(=O)oc3c2)CC1 [Compound 245, 3-(8-bromoimidazo[1,2-a]pyridin-2-yl)-7-(4-methylpiperazin-1-yl)-2H-chromen-2-one]	0.1 to 0.3	** (fold increase between >1.2 and ≤1.35)	217 to 220 °C	–
Cc1cccn2cc(-c3cc4ccc(N5CCCN(C)CC5)cc4oc3=O)nc12 [Compound 246, 7-(4-methyl-1,4-diazepan-1-yl)-3-(8-methylimidazo[1,2-a]pyridin-2-yl)-2H-chromen-2-one]	0.1 to 0.3	*** (fold increase between >1.35 and ≤1.5)	138 to 140 °C	1000 to 3000
Cc1cccn2cc(-c3cc4ccc(N5CCN[C@H](C)C5)cc4oc3=O)nc12 [Compound 247, 3-(8-methylimidazo[1,2-a]pyridin-2-yl)-7-[(3R)-3-methylpiperazin-1-yl]-2H-chromen-2-one]	0.1 to 0.3	** (fold increase between >1.2 and ≤1.35)	299 °C (dec.)	–
Cc1cccn2cc(-c3cc4ccc(N5CCN[C@@H](C)C5)cc4oc3=O)nc12 [Compound 248, 3-(8-methylimidazo[1,2-a]pyridin-2-yl)-7-[(3S)-3-methylpiperazin-1-yl]-2H-chromen-2-one]	0.1 to 0.3	** (fold increase between >1.2 and ≤1.35)	162 to 166 °C	1000 to 3000
CC1(C)CN(c2ccc3cc(-c4cn5cccc(Cl)c5n4)c(=O)oc3c2)CCN1 [Compound 249, 3-(8-chloroimidazo[1,2-a]pyridin-2-yl)-7-(3,3-dimethylpiperazin-1-yl)-2H-chromen-2-one]	0.3 to 1	** (fold increase between >1.2 and ≤1.35)	216 to 220 °C	–
Cc1cnc2nc(-c3cc4ccc(N5CCCN(C)CC5)cc4oc3=O)cn2c1 [Compound 250, 7-(4-methyl-1,4-diazepan-1-yl)-3-(6-methylimidazo[1,2-a]pyrimidin-2-yl)-2H-chromen-2-one]	0.1 to 0.3	*** (fold increase between >1.35 and ≤1.5)	285 to 287 °C	1000 to 3000
Cc1ccc2nc(-c3cc4ccc(CNC(C)CO)cc4oc3=O)cn2c1 (stereo not shown) [Compound 251, 7-{[(1-hydroxypropan-2-yl)amino]methyl}-3-(6-methylimidazo[1,2-a]pyridin-2-yl)-2H-chromen-2-one]	3 to 30	* (maximum fold increase of ≤1.2)	224 to 227 °C	–
Cc1ccc2nc(-c3cc4ccc(CN5CCC(O)CC5)cc4oc3=O)cn2c1 [Compound 252, 7-[(4-hydroxypiperidin-1-yl)methyl]-3-(6-methylimidazo[1,2-a]pyridin-2-yl)-2H-chromen-2-one]	3 to 30	** (fold increase between >1.2 and ≤1.35)	261 to 264 °C	–
Cc1ccc2nc(-c3cc4ccc(CN5CCC(O)C5)cc4oc3=O)cn2c1 (stereo not shown) [Compound 253, 7-[(3-hydroxypyrrolidin-1-yl)methyl]-3-(6-methylimidazo[1,2-a]pyridin-2-yl)-2H-chromen-2-one]	1 to 3	* (maximum fold increase of ≤1.2)	227 to 230 °C	–
O=c1oc2cc(N3CCNCC3)cc(F)c2cc1-c1nc2c(C(F)(F)F)cccc2o1 [Compound 254, 5-fluoro-7-(piperazin-1-yl)-3-[4-(trifluoromethyl)-1,3-benzoxazol-2-yl]-2H-chromen-2-one]	0.3 to 1	* (maximum fold increase of ≤1.2)	249 to 253 °C	–
Cc1ccc2nc(-c3cc4ccc(N5CC6CCCNC6C5)cc4oc3=O)cn2c1 (stereo not shown) [Compound 255, 3-(6-methylimidazo[1,2-a]pyridin-2-yl)-7-(octahydro-6H-pyrrolo[3,4-b]pyridin-6-yl)-2H-chromen-2-one]	3 to 30	* (maximum fold increase of ≤1.2)	220 to 230 °C	–
CCOc1ncccc1-c1cc2ccc(N3CCNCC3)cc2oc1=O [Compound 256, 3-(2-ethoxypyridin-3-yl)-7-(piperazin-1-yl)-2H-chromen-2-one]	3 to 30	* (maximum fold increase of ≤1.2)	186 to 188 °C	–
COc1cccc(-c2cc3ccc(N4CCN(C)CC4)cc3oc2=O)n1 [Compound 257, 3-(6-methoxypyridin-2-yl)-7-(4-methylpiperazin-1-yl)-2H-chromen-2-one]	1 to 3	* (maximum fold increase of ≤1.2)	162 to 164 °C	–
Cn1cc(-c2cc3ccc(N4CCNCC4)cc3oc2=O)c2ccccc21 [Compound 258, 3-(1-methyl-1H-indol-3-yl)-7-(piperazin-1-yl)-2H-chromen-2-one]	0.3 to 1	* (maximum fold increase of ≤1.2)	201 to 203 °C	–
CN1CCN(c2ccc3cc(-c4cn(C)c5ccccc45)c(=O)oc3c2)CC1 [Compound 259, 3-(1-methyl-1H-indol-3-yl)-7-(4-methylpiperazin-1-yl)-2H-chromen-2-one]	1 to 3	* (maximum fold increase of ≤1.2)	185 to 187 °C	–
Cc1cc(C)c2nc(-c3cc4ccc(N5CCNCC5)cc4oc3=O)cn2c1 [Compound 260, 3-(6,8-dimethylimidazo[1,2-a]pyridin-2-yl)-7-(piperazin-1-yl)-2H-chromen-2-one]	0.3 to 1	* (maximum fold increase of ≤1.2)	219 to 229 °C	–
Cc1cc(C)c2nc(-c3cc4ccc(N5CCN(C)CC5)cc4oc3=O)cn2c1 [Compound 261, 3-(6,8-dimethylimidazo[1,2-a]pyridin-2-yl)-7-(4-methylpiperazin-1-yl)-2H-chromen-2-one]	0.3 to 1	** (fold increase between >1.2 and ≤1.35)	232 to 238 °C	–
Cc1cc(C)c2nc(-c3cc4ccc(N5C[C@@H](C)N[C@@H](C)C5)cc4oc3=O)cn2c1 [Compound 262, 3-(6,8-dimethylimidazo[1,2-a]pyridin-2-yl)-7-[(3R,5S)-3,5-dimethylpiperazin-1-yl]-2H-chromen-2-one]	0.3 to 1	** (fold increase between >1.2 and ≤1.35)	227 to 237 °C	–

Source: patent USRE47689E1, “Compounds for treating spinal muscular atrophy” (PTC Therapeutics, Inc., priority 2011, dated 2019)
